Measurements: patent publication US9475776B2, “PRMT1 inhibitors and uses thereof” (Epizyme, Inc., priority 2013, dated 2016)

Key:
[1] = biological target: T1, PRMT1 (Homo sapiens, UniProt Q99873); test: PRMT1 biochemical assay (3H-SAM Flashplate, histone H4 peptide substrate); conditions: GST-tagged full-length human PRMT1 0.5 nM, 30 min preincubation, peptide 20 nM
T1 construct: GST-tagged PRMT1; made in house; host or cells: High Five insect cells (baculovirus, pFastBacI)
From the text: S-adenosylmethionine (SAM), S-adenosylhomocysteine (SAH), bicine, Tween20, dimethylsulfoxide (DMSO), bovine skin gelatin (BSG), and Tris(2-carboxyethyl)phosphine hydrochloride solution (TCEP) were purchased from Sigma-Aldrich at the highest level of purity possible. ^3H-SAM was purchase from American Radiolabeled Chemicals with a specific activity of 80 Ci/mmol. 384-well streptavidin Flashplates were purchased from PerkinElmer.
Peptide representative of human histone H4 residues 36-50 was synthesized with an N-terminal linker-affinity tag motif and a C-terminal amide cap by 21st Century Biochemicals. The peptide was purified by high-performance liquid chromatography (HPLC) to greater than 95% purity and confirmed by liquid chromatography mass spectrometry (LC-MS). The sequence was Biot-Ahx-RLARRGGVKRISGLI-amide (SEQ ID NO.: 1).
Full-length human PRMT1 isoform 1 (NM_001536.5) transcript clone was amplified from an HEK 293 cDNA library, incorporating flanking 5′ sequence encoding a FLAG tag (DYKDDDDK) (SEQ ID NO.:2) fused directly to Met 1 of PRMT1. The amplified gene was subcloned into pFastBacI (Life Technologies) modified to encode an N-terminal GST tag and a TEV cleavage sequence ([…] […] […] […]) (SEQ ID NO.:3) fused to Asp of the Flag tag of PRMT1.
Recombinant baculovirus were generated according to Bac-to-Bac kit instructions (Life Technologies). Protein over-expression was accomplished by infecting exponentially growing High Five insect cell culture at 1.5×10^6 cell/ml with 1:100 ratio of virus. Infections were carried out at 27° C. for 48 hours, harvested by centrifugation, and stored at −80° C. for purification. […]

[2] = tested on: mono-methyl arginine in RKO cells; test: RKO methylation assay (In Cell Western for mono-methyl arginine and DNA content); type: cell-based; conditions: 72 hours, percent activation of mono-methyl arginine signal normalised to DNA content
From the text: RKO adherent cells were purchased from ATCC (American Type Culture Collection), Manassas, Va., USA. DMEM/Glutamax medium, penicillin-streptomycin, heat inactivated fetal bovine serum, 0.05% trypsin and D-PBS were purchased from Life Technologies, Grand Island, N.Y., USA. Odyssey blocking buffer, 800CW goat anti-rabbit IgG (H+L) antibody, and Licor Odyssey infrared scanner were purchased from Licor Biosciences, Lincoln, Nebr., USA. Mono-methyl arginine antibody was purchased from Cell Signaling Technology, Danvers, Mass., USA.
Methanol was purchased from VWR, Franklin, Mass., USA. 10% Tween 20 was purchased from KPL, Inc., Gaithersburg, Md., USA. DRAQ5 was purchased from Biostatus Limited, Leicestershire, UK. […]
First, the ratio for each well was determined by:
Each plate included fourteen control wells of DMSO only treatment (minimum activation) as well as fourteen control wells for maximum activation treated with 20 μM of a reference compound. The average of the ratio values for each control type was calculated and used to determine the percent activation for each test well in the plate. […] Percent activation was determined and EC30 curves were generated using triplicate wells per concentration of compound.

T1 sequence (Q99873 with tags, fused parts or gaps): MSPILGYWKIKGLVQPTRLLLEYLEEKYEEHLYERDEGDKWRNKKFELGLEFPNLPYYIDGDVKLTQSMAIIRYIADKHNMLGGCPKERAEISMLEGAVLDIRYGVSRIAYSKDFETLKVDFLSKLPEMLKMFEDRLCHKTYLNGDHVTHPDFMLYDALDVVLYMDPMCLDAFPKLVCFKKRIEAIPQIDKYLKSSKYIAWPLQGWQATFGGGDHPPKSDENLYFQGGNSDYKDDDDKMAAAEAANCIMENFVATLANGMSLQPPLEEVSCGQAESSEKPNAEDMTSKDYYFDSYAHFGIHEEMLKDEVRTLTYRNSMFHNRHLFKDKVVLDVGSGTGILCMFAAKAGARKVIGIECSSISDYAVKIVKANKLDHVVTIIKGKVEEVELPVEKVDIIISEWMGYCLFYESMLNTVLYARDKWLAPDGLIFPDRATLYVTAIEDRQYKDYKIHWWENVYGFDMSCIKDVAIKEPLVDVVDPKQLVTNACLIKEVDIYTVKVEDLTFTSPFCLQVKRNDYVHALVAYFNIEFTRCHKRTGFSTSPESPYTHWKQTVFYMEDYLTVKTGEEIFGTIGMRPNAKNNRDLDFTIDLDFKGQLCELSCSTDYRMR

IC50 [1]	Molecule	In Cell Western EC30 [2]
< 100 nM	C=C(C)C(=O)Nc1ccc(-c2[nH]ncc2CN(C)CCNC)cc1 [Compound 1, N-(4-(4-((methyl(2-(methylamino)ethyl)amino)methyl)-1H-pyrazol-3-yl)phenyl)methacrylamide]	B (“B” indicates an EC30 of 3.01-12.00 μM)
101 to 1000 nM	C=CC(=O)Nc1ccc(-c2[nH]ncc2CN(C)CCNC)cc1 [Compound 2, N-(4-(4-((methyl(2-(methylamino)ethyl)amino)methyl)-1H-pyrazol-3-yl)phenyl)acrylamide]	C (“C” indicates an EC30 ≧ 12.01 μM)

Molecule	IC50 [1]	In Cell Western EC30 [2]
3-methyl-N-(3-(4-((methyl (2-(methylamino)ethyl)amino)methyl)-1H-pyrazol-3-yl)phenyl)but-2-enamide [Compound 3]	101 to 1000 nM	
